# Measurements as given in ChEMBL document CHEMBL5532697, “Imidazopyrimidine: from a relatively exotic scaffold to an evolving structural motif in drug discovery” (RSC Med Chem, 2024).
# Tests used:
# [1] = target: Albumin (Homo sapiens, UniProt P02768); assay: Inhibition of Albumin (unknown origin) denaturation at 100 uM relative to control
# [2] = target: cAMP and cAMP-inhibited cGMP 3',5'-cyclic phosphodiesterase 10A (Homo sapiens, UniProt Q9Y233); assay: Inhibition of full length human PDE10A incubated for 1 hr by topcount Scintillation plate reader analysis
# [3] = system: BK polyomavirus; assay: Antiviral activity against BK polyomavirus MM infected in human HFF cells assessed as reduction in viral growth incubated for 7 days; format: functional, organism-based; details: Betapolyomavirus hominis, 168 h
# [4] = Cytotoxicity against human HFF cells assessed as cell growth inhibition by celltiter-glo assay; format: toxicity, cell-based
# [5] = system: A549; assay: Antiproliferative activity against human A549 cells assessed as inhibition of cell growth by MTT assay; format: functional, cell-based
# [6] = target: Pyruvate kinase PKM (Homo sapiens, UniProt P14618); assay: Inhibition of recombinant PKM2 (unknown origin)
# [7] = system: COLO 205; assay: Antiproliferative activity against human COLO 205 cells assessed as inhibition of cell growth incubated for 48 hrs by alamarblue staining based assay; format: functional; details: COLO 205, 48 h
# [8] = system: A549; assay: Antiproliferative activity against human A549 cells assessed as inhibition of cell growth incubated for 48 hrs by alamarblue staining based assay; format: functional; details: A549, 48 h
# [9] = system: MCF7; assay: Antiproliferative activity against human MCF7 cells assessed as inhibition of cell growth incubated for 48 hrs by alamarblue staining based assay; format: functional; details: MCF7, 48 h
# [10] = system: Kluyveromyces marxianus; assay: Antifungal activity against Candida kefyr assessed as reduction in fungal growth incubated for 24 hrs by CLSI based assay; format: functional
# [11] = system: Pichia kudriavzevii; assay: Antifungal activity against Candida krusei ATCC 6358 assessed as reduction in fungal growth incubated for 24 hrs by CLSI based assay; format: functional
# [12] = system: Candida tropicalis; assay: Antifungal activity against Candida tropicalis MYA-3404 assessed as reduction in fungal growth incubated for 24 hrs by CLSI based assay; format: functional
# [13] = system: Nakaseomyces glabratus; assay: Antifungal activity against Candida glabrata CBS138 assessed as reduction in fungal growth incubated for 24 hrs by CLSI based assay; format: functional
# [14] = system: Candida dubliniensis; assay: Antifungal activity against Candida dubliniensis CD36 assessed as reduction in fungal growth incubated for 24 hrs by CLSI based assay; format: functional
# [15] = system: Meyerozyma guilliermondii; assay: Antifungal activity against Meyerozyma guilliermondii assessed as reduction in fungal growth incubated for 24 hrs by CLSI based assay; format: functional
# [16] = system: Candida albicans; assay: Antifungal activity against Candida albicans ATCC 10231 assessed as reduction in fungal growth incubated for 24 hrs by CLSI based assay; format: functional
# [17] = system: Aorta; assay: Vasorelaxant activity in rabbit aorta assessed as inhibition of phenylephrine-induced contraction; format: functional, tissue-based; details: Oryctolagus cuniculus
# [18] = system: Kluyveromyces marxianus; assay: Antifungal activity against Candida keyfer […] 410004 assessed as inhibition of fungal growth incubated for 48 hrs; format: functional
# [19] = system: Aspergillus niger; assay: Antifungal activity against Aspergillus niger assessed as inhibition of fungal growth incubated for 48 hrs; format: functional
# [20] = system: Candida albicans; assay: Antifungal activity against Candida albicans NCPF 400034 assessed as inhibition of fungal growth incubated for 48 hrs; format: functional
# [21] = system: Neurospora crassa; assay: Antifungal activity against Neurospora crassa assessed as inhibition of fungal growth incubated for 48 hrs; format: functional
# [22] = system: Cryptococcus neoformans; assay: Antifungal activity against Cryptococcus neoformans NCPF 250316 assessed as inhibition of fungal growth incubated for 48 hrs; format: functional
# [23] = system: A549; assay: Antiproliferative activity against human A549 cells assessed as inhibition of cell growth incubated for 72 hrs by MTT assay; format: functional, cell-based; details: A549, 72 h
# [24] = system: K562; assay: Antiproliferative activity against human K562 cells assessed as inhibition of cell growth incubated for 72 hrs by MTT assay; format: functional, cell-based; details: K562, 72 h
# [25] = system: CEM-DNR; assay: Antiproliferative activity against human CEM-DNR cells assessed as inhibition of cell growth incubated for 72 hrs by MTT assay; format: functional, cell-based
# [26] = system: CCRF-CEM; assay: Antiproliferative activity against human CCRF-CEM cells assessed as inhibition of cell growth incubated for 72 hrs by MTT assay; format: functional, cell-based
# Albumin, sequence (P02768 whole entry): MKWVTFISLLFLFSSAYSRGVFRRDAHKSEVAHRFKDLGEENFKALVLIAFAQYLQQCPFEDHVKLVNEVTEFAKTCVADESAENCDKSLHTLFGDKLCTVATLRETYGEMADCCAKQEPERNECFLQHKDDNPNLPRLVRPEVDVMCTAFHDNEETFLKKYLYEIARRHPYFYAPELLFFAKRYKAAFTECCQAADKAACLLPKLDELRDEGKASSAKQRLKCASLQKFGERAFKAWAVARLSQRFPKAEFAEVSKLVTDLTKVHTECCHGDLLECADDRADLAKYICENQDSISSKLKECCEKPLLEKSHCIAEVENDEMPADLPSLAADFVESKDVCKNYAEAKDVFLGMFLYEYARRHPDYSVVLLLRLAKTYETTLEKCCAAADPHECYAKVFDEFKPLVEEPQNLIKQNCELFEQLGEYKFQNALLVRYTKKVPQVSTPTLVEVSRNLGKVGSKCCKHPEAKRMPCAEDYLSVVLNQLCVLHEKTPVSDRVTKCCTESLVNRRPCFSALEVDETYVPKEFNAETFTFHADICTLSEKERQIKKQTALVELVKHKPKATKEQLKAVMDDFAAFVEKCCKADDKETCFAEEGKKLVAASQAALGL
# Pyruvate kinase PKM, sequence (P14618 whole entry): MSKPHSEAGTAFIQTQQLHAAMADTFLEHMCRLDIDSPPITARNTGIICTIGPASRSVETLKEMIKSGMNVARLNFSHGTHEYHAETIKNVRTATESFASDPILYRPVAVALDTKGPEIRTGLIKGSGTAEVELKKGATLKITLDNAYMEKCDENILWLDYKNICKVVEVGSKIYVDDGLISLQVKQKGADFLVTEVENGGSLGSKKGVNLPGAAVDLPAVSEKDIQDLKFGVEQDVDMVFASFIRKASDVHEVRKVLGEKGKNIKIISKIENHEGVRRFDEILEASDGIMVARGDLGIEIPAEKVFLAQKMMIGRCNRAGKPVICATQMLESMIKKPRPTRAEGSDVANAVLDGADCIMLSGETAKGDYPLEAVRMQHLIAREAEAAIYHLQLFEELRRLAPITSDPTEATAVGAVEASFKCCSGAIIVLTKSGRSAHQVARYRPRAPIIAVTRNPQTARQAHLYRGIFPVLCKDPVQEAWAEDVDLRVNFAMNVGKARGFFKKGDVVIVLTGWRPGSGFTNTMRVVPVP
# cAMP and cAMP-inhibited cGMP 3',5'-cyclic phosphodiesterase 10A, sequence (Q9Y233 whole entry): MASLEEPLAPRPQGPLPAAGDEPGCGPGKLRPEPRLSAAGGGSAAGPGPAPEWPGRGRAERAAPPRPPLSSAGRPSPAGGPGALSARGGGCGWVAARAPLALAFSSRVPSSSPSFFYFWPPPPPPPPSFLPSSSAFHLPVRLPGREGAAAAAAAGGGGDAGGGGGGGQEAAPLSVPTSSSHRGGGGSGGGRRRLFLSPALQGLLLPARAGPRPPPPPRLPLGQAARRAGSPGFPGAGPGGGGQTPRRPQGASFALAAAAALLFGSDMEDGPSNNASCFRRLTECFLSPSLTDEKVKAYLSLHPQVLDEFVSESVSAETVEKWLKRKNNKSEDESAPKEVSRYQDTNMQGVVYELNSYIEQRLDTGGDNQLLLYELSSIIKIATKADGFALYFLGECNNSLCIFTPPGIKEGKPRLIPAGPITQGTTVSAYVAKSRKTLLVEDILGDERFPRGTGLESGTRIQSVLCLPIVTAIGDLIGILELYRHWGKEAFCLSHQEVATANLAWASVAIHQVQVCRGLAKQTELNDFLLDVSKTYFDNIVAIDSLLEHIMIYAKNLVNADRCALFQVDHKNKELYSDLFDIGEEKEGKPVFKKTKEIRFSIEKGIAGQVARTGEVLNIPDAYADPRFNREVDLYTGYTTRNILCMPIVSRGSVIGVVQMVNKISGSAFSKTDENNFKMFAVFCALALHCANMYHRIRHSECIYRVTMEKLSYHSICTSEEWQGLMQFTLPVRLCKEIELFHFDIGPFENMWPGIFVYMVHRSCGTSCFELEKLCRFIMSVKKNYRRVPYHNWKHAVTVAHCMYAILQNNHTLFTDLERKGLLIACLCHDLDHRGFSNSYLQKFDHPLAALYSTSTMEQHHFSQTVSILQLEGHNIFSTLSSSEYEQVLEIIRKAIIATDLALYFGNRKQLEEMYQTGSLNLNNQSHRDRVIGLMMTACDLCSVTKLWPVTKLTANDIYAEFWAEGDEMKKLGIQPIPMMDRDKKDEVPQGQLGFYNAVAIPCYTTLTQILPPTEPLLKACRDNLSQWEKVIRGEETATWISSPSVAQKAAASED
structure (smiles),measurement,setting,value
Clc1ccc(-c2cn3cccnc3n2)cc1,inhibition at 100 µM,[1],41.7%
COc1ccc(-c2cn3cccnc3n2)cc1,inhibition at 100 µM,[1],40.9%
Cc1ccc(-c2cn3cccnc3n2)cc1,inhibition at 100 µM,[1],82.9%
Cc1c(C(=O)N2CCCC2)cnn1C(=O)Nc1ccn2cc(-c3ccccc3)nc2n1,IC50,[2],0.003 µM
Cc1c(C(=O)NCc2c[nH]cn2)cnn1C(=O)Nc1ccn2cc(-c3ccccc3)nc2n1,IC50,[2],0.002 µM
CS(=O)(=O)C1=CN(Cc2ccccc2)C(=O)N2CCN=C12,EC50,[3],0.66 µM
same,CC50,[4],> 150 µM
Cc1c(C(=O)N2CCC2)cnn1C(=O)Nc1ccn2cc(-c3ccc(Cl)s3)nc2n1,IC50,[2],0.004 µM
Cc1ccc(S(=O)(=O)C2=CN(c3ccccc3)C(=O)N3CCN=C23)cc1,EC50,[3],93 µM
same,CC50,[4],> 150 µM
CC(=O)NC1(Cc2ccc(O)cc2)C(=O)N=C2N=CC=CN21 (stereo unspecified),IC50,[5],6.4 µM
COc1ccccc1N1CCN(CC(=O)c2cnc3ncccn23)CC1,IC50,[6],0.027 µM
same,IC50,[7],64.8 µM
same,IC50,[8],26.2 µM
same,IC50,[9],12.2 µM
CC(=O)NC1(Cc2cccc3ccccc23)C(=O)N=C2N=CC=CN21 (stereo unspecified),IC50,[5],2.6 µM
O=C(CN1CCN(c2ccccc2)CC1)c1cnc2ncccn12,IC50,[6],0.05 µM
same,IC50,[7],73.5 µM
same,IC50,[8],28.5 µM
same,IC50,[9],13.5 µM
Cc1c(C(=O)NCc2cocn2)cnn1C(=O)Nc1ccn2cc(-c3ccccc3)nc2n1,IC50,[2],0.001 µM
CC(=O)c1ccc(C(=O)N2CCN(CC(=O)c3cnc4ncccn34)CC2)cc1,IC50,[6],0.73 µM
same,IC50,[7],104 µM
same,IC50,[8],35.4 µM
same,IC50,[9],11.8 µM
O=C(c1ccc(Cl)cc1)c1cnc2ncccn12,MIC,[10],0.125 µg/mL
same,MIC,[11],0.5 µg/mL
same,MIC,[12],0.031 µg/mL
same,MIC,[13],1 µg/mL
same,MIC,[14],0.5 µg/mL
same,MIC,[15],0.062 µg/mL
same,MIC,[16],0.25 µg/mL
O=C(CN1CCN(c2ccc(Cl)cc2)CC1)c1cnc2ncccn12,IC50,[6],0.79 µM
same,IC50,[7],28 µM
same,IC50,[8],37.5 µM
same,IC50,[9],12.9 µM
CC(=O)NC1(Cc2ccc(Br)cc2)C(=O)N=C2N=CC=CN21 (stereo unspecified),IC50,[5],2.1 µM
Nc1cc(N)nc(-c2nc(Cc3ccccc3F)c3ncccn23)n1,IC50,[17],1.05 µM
O=C(c1ccc(F)cc1)c1cnc2ncccn12,MIC,[10],0.125 µg/mL
same,MIC,[11],0.5 µg/mL
same,MIC,[12],0.25 µg/mL
same,MIC,[13],0.031 µg/mL
same,MIC,[14],0.5 µg/mL
same,MIC,[15],0.25 µg/mL
same,MIC,[16],0.062 µg/mL
Cc1ccc([Se]Cc2cn3cccnc3n2)cc1,MIC,[18],18.9 µg/mL
same,MIC,[19],> 37.8 µg/mL
same,MIC,[20],> 37.8 µg/mL
same,MIC,[21],18.9 µg/mL
same,MIC,[22],> 36 µg/mL
c1ccc(-c2ccc(-c3cn4cccnc4n3)cc2)cc1,inhibition at 100 µM,[1],96.4%
N#Cc1ccc(C(=O)c2cnc3ncccn23)cc1,MIC,[10],0.125 µg/mL
same,MIC,[11],0.25 µg/mL
same,MIC,[12],0.062 µg/mL
same,MIC,[13],0.065 µg/mL
same,MIC,[14],0.062 µg/mL
same,MIC,[15],0.031 µg/mL
same,MIC,[16],0.25 µg/mL
O=C(CN1CCN(c2ncccn2)CC1)c1cnc2ncccn12,IC50,[6],0.45 µM
same,IC50,[7],65.8 µM
same,IC50,[8],24.4 µM
same,IC50,[9],14.7 µM
Cc1c(C(=O)N2CCC2)cnn1C(=O)Nc1ccn2cc(-c3ccccc3)nc2n1,IC50,[2],0.003 µM
O=C(c1ccccc1)c1cnc2ncccn12,MIC,[10],0.125 µg/mL
same,MIC,[11],0.5 µg/mL
same,MIC,[12],0.5 µg/mL
same,MIC,[13],0.062 µg/mL
same,MIC,[14],0.062 µg/mL
same,MIC,[15],0.062 µg/mL
same,MIC,[16],0.125 µg/mL
N#Cc1ccccc1N1CCN(CC(=O)c2cnc3ncccn23)CC1,IC50,[6],1.2 µM
same,IC50,[7],64.8 µM
same,IC50,[8],27.9 µM
same,IC50,[9],11 µM
CC(=O)NC1(Cc2c[nH]c3ccc(Br)cc23)C(=O)N=C2N=CC=CN21 (stereo unspecified),IC50,[5],1.4 µM
CCOC(=O)c1ccc(-c2cn3cccnc3n2)cc1,inhibition at 100 µM,[1],54.2%
CS(=O)(=O)C1=CNC(=O)N2CCN=C12,EC50,[3],22.4 µM
same,CC50,[4],> 150 µM
Cc1c(C(=O)N2CCC2)cnn1CC(=O)Nc1ccn2cc(-c3ccccc3)nc2n1,IC50,[2],0.004 µM
Cc1c(C(=O)N2CC=CC2)cnn1C(=O)Nc1ccn2cc(-c3ccccc3)nc2n1,IC50,[2],0.009 µM
COc1ccc(C(=O)N2CCN(CC(=O)c3cnc4ncccn34)CC2)cc1,IC50,[6],0.314 µM
same,IC50,[7],44.9 µM
same,IC50,[8],24 µM
same,IC50,[9],11.6 µM
Cc1ccc(N2CCN(CC(=O)c3cnc4ncccn34)CC2)cc1,IC50,[6],0.06 µM
same,IC50,[7],57.8 µM
same,IC50,[8],27.1 µM
same,IC50,[9],14.5 µM
Nc1nc(N)nc(-c2nc(Cc3ccccc3F)c3ncccn23)n1,IC50,[17],0.215 µM
O=C(CN1CCN(c2ccco2)CC1)c1cnc2ncccn12,IC50,[6],0.31 µM
same,IC50,[7],61 µM
same,IC50,[8],19.4 µM
same,IC50,[9],10.9 µM
O=C(O)c1ccccc1Nc1c(Cl)cccc1Cl,inhibition at 100 µM,[1],84.7%
O=C(CN1CCN(C(=O)c2ccc(Cl)cc2)CC1)c1cnc2ncccn12,IC50,[6],1.86 µM
same,IC50,[7],28 µM
same,IC50,[8],25.3 µM
same,IC50,[9],11.8 µM
O=c1[nH]cc(-c2ccc(-c3ccccc3)cc2)c2nccn12,IC50,[23],10.1 µM
same,IC50,[24],15.2 µM
same,IC50,[25],2.84 µM
same,IC50,[26],8.59 µM
CC(=O)NC1(Cc2ccc(N)cc2)C(=O)N=C2N=CC=CN21 (stereo unspecified),IC50,[5],3.2 µM
Cc1ccc(C(=O)c2cnc3ncccn23)cc1,MIC,[10],0.5 µg/mL
same,MIC,[11],0.5 µg/mL
same,MIC,[12],0.25 µg/mL
same,MIC,[13],0.062 µg/mL
same,MIC,[14],0.25 µg/mL
same,MIC,[15],0.062 µg/mL
same,MIC,[16],0.12 µg/mL
C[C@@H]1[C@H](O)[C@@H](C)/C=C/C=C/C=C/C=C/C=C/C=C/C=C/[C@H](O[C@@H]2O[C@H](C)[C@@H](O)[C@H](N)[C@@H]2O)C[C@@H]2O[C@](O)(C[C@@H](O)C[C@@H](O)[C@H](O)CC[C@@H](O)C[C@@H](O)CC(=O)O[C@H]1C)C[C@H](O)[C@H]2C(=O)O [AMPHOTERICIN B],MIC,[18],12.5 µg/mL
same,MIC,[19],0.39 µg/mL
same,MIC,[20],0.78 µg/mL
same,MIC,[21],0.39 µg/mL
same,MIC,[22],0.2 µg/mL
Nc1ccn(C[C@@H](CO)OCP(=O)(O)O)c(=O)n1 [CIDOFOVIR ANHYDROUS],EC50,[3],0.24 µM
same,CC50,[4],> 150 µM
CC(C)(C)c1nc(-c2cccc(NS(=O)(=O)c3c(F)cccc3F)c2F)c(-c2ccnc(N)n2)s1 [DABRAFENIB],IC50,[5],0.003 µM
OC(Cn1cncn1)(Cn1cncn1)c1ccc(F)cc1F [FLUCONAZOLE],MIC,[10],1 µg/mL
same,MIC,[11],4 µg/mL
same,MIC,[12],1 µg/mL
same,MIC,[14],0.5 µg/mL
same,MIC,[15],1 µg/mL
same,MIC,[16],0.5 µg/mL
CC(=O)N1CCN(c2ccc(OCC3COC(Cn4ccnc4)(c4ccc(Cl)cc4Cl)O3)cc2)CC1 (stereo unspecified) [KETOCONAZOLE],MIC,[10],0.25 µg/mL
same,MIC,[11],1 µg/mL
same,MIC,[12],2 µg/mL
same,MIC,[13],0.25 µg/mL
same,MIC,[14],2 µg/mL
same,MIC,[15],0.125 µg/mL
same,MIC,[16],8 µg/mL
